Measurements published in US9062002B2, “Substituted pyridine derivatives as FabI inhibitors” (Aurigene Discovery Technologies Limited, priority 2011, dated 2015).
In brackets after ≈: the same amount, converted by molar mass.

Experiments:
[1] = Metabolic stability study in mouse liver microsomes; format: in vitro ADME; settings: 1 μM, 37° C.
Method: The above selected compounds have protected mice from infection at ED50 doses. Metabolic Stability Study: In vitro metabolic stability of the compounds was done in mouse liver microsomes prepared in house as per standard protocol. Compounds were tested at 1 μM concentration. Compounds were incubated for 15 and 60 minutes at 37° C. with 100 rpm in shaker bath. After the incubation samples were analysed by LC/MS (API-4000). Respective control (Propranalol) was included in the study.

[2] = tested on: MSSA; experiment: MIC by broth microdilution method; format: cell-based; settings: for MIC: Staphylococcus aureus, MRSA / MSSA, MSSA, broth microdilution, read-out: MIC Vs MRSA (μg/ml) MSSA
[3] = tested on: Fab I; settings: 1 μM compound
[4] = tested on: MRSE; experiment: MIC by broth microdilution method; format: cell-based; settings: for MIC: Staphylococcus epidermidis, MRSA / MRSE, MRSE, broth microdilution, read-out: MIC Vs MRSA (μg/ml) MRSE
[5] = tested on: MRSA; experiment: MIC by broth microdilution method; format: cell-based; settings: for MIC: Staphylococcus aureus, MRSA, broth microdilution, read-out: MIC Vs MRSA (μg/ml) MRSA

Row | SMILES | Percentage of compound remained after 15 min [1] [%] | Percentage of compound remained after 60 min [1] [%] | MIC [2] [µg/mL] | FAB-I inhibition %@1 μM [3] [%] | MIC [4] [µg/mL] | MIC [5] [µg/mL] | MIC Vs MRSA (μg/ml) MSSA [2] [µg/mL] | MIC Vs MRSA (μg/ml) MRSE [4] [µg/mL] | MIC Vs MRSA (μg/ml) MRSA [5] [µg/mL]
1 | CN1CC(=O)Nc2ncc(/C=C/C(=O)N3CC=C(Cc4cccs4)CC3)cc2C1 [Compound 93, (E)-4-methyl-7-(3-oxo-3-(4-(thiophen-2-ylmethyl)-5,6-dihydropyridin-1(2H)-yl)prop-1-en-1-yl)-4,5-dihydro-1H-pyrido[2,3-e][1,4]diazepin-2(3H)-one] | 16.1 | 1.1 | 0.5 (≈ 1.22 µM) | 93 | 1 (≈ 2.45 µM) | 0.5 (≈ 1.22 µM) | – | – | –
2 | O=C1CCc2cc(/C=C/C(=O)N3CC=C(c4ccccc4)CC3)cnc2N1 [Compound 2, (E)-6-(3-oxo-3-(4-phenyl-5,6-dihydropyridin-1(2H)-yl)prop-1-en-1-yl)-3,4-dihydro-1,8-naphthyridin-2(1H)-one] | 99.7 | 97.9 | 0.5 (≈ 1.39 µM) | 86 | 4 (≈ 11.1 µM) | 0.5 (≈ 1.39 µM) | – | – | –
3 | O=C(/C=C/c1cnc2c(c1)CN(CCN1CCOCC1)C(=O)N2)N1CC=C(Cc2cccs2)CC1 [Compound 90, (E)-3-(2-morpholinoethyl)-6-(3-oxo-3-(4-(thiophen-2-ylmethyl)-5,6-dihydropyridin-1(2H)-yl)prop-1-en-1-yl)-3,4-dihydro pyrido[2,3-d]pyrimidin-2(1H)-one] | 32.4 | 22.9 | > 128 | 89 | > 128 | > 128 | – | – | –
4 | O=C1CCc2cc(/C=C/C(=O)N3CC=C(Cc4cccc(F)c4)CC3)cnc2N1 [Compound 65] | 90.6 | 75.0 | – | 90 | – | – | 0.25 (≈ 0.639 µM) | 0.5 (≈ 1.28 µM) | 0.25 (≈ 0.639 µM)
5 | CC(=O)Nc1ccc(/C=C/C(=O)N2CC=C(Cc3cccs3)CC2)cn1 [Compound 88, (E)-N-(5-(3-oxo-3-(4-(thiophen-2-ylmethyl)-5,6-dihydropyridin-1(2H)-yl)prop-1-en-1-yl)pyridin-2-yl)acetamide] | 11.1 | 5.5 | > 128 | 87 | > 128 | > 128 | – | – | –
